Where “and” joins values, the source holds several entries; their conditions need not be identical. Equal entries are not always repeated.
Columns and labels:
Sprague-Dawley rats [1] = assay: Conditioned Emotional Response (CER) assay; format: in vivo; conditions: for Total number lever press: 40 min test session; for Total number lever press / Suppression ratio (SR): mean±SEM; for Suppression ratio (SR): at least 10 rats, *p<0.05 vs vehicle; for Efficacy in the CER assay (effect on SR), in words: rat, in vivo; for Magnitude of the SR effect compared with diazepam: diazepam 2 mg/kg i.p
Method: Male, Sprague-Dawley rats of approximate body weight 350-450 g were placed on a restricted food diet (45 min free access per day) and trained over a 1-2 week period to press a lever for food reward (45 mg food pellet). […] Test session length was for a 40 min test period, and test sessions were run 5 days/week. Once stable response rates were attained, 2 periods of a 2 min light and tone cue (conditioning stimulus, CS) was introduced into the test session. The 2 min CS was terminated by a 0.5 s unavoidable footshock of 0.3-0.8 mA intensity (UCS). The first CS-UCS was at approximately 10 min (range 5-15 min) and the second CS-UCS pairing at approximately 30 min (range 25-35 min) within the test session. On drug test days, and occasional training days, footshock was not delivered. The number of lever presses recorded during the two 2 min CS periods (response A), and the number of lever presses recorded in the 2 min periods immediately prior to the two CS periods (response B) were measured and a suppression ratio (SR) was calculated according to the formula (A/A+B). Thus a SR of 0 reflects no responding during the CS periods, i.e. a complete suppression of lever pressing for food by the CS, and a SR of 0.5 reflects equivalent responding during both the CS and 2 min period prior to CS, i.e. no suppression of lever pressing for food by the CS. Thus in drug untreated animals, SR value was typically 0-0.1 and established anti-anxiety agents such as diazepam increased this value to 0.4-0.5 (for literature examples see Stanhope and Dourish (1996) Psychopharmacol. 128: 293-303; Mirza et al (2005) Psychopharmacol. 180: 159-168). In addition to SR, the total number of lever presses emitted by the animals over the 40 min test session was measured.
Drug testing was conducted according to a repeated measures design, with each animal receiving each dose of drug treatment or vehicle control in a balanced design. Typically drug testing was conducted on Tuesdays and Fridays, with the animals drug untreated but otherwise run for baseline purposes. In each experiment a standard dose of diazepam (2 mg/kg i.p) was included as a positive control.

CD-1 mice [2] = assay: Marble Burying Assay; format: in vivo; conditions: for Number of marbles buried: 22 marbles, 30 min, mean±SEM, at least 8 mice
Method: (§1) Male, experimentally naïve CD-1 mice of body weight range 25-35 g were used in these studies. Following a pretreatment with test drug or vehicle control the animals were singly placed within a Perspex chamber of dimension (48 cm×28 cm×20 cm; L×W×H) containing fresh sawdust bedding onto which 22 marbles were evenly spaced on the surface. After a 30 min period, the mice were removed and the number of marbles that were covered by at least ⅔rd by sawdust were counted as buried. Typically mice will bury a significant proportion of the marbles, probably to hide the potential threat posed by the marbles which represent a novel stimulus to the animal. […] One interpretation for this effect is that diazepam reduces the threat perceived to the animal by the close presence of the marbles (Broekkamp et al, 1986 Eur. J. Pharmacol. 126: 223-229; Nicolas et al, 2006 Eur. J. Pharmacol. 547; 106-115). In a separate group of sex, age and weight matched CD-1 mice, equivalent doses of test compound were evaluated on motor function using a fixed speed (16 r.p.m) rotorod assay. The best score from 3 attempts was recorded, with the maximum test duration of 60 s. Testing was conducted at 40 min post injection, i.e. approximate mid-point of the marble-burying assay.
Drug testing was run according to a between subjects design. […] The (S)-enantiomer of Lacosamide was ineffective in this assay.

CD-1 mice [3] = assay: Fixed speed (16 r.p.m) rotorod assay of motor function; format: in vivo; conditions: median of at least 4 mice, maximum score=60 s, 40 min post injection
Method: as §1

Sprague-Dawley rats [4] = conditions: drug untreated animals typically 0-0.1; literature examples; cited from earlier work
CD-1 mice [5] = conditions: at doses with no obvious effect on general motor function; literature; cited from earlier work
[6] = dose 2 (2 mg/kg i.p, positive control), 2 mg/kg
[7] = dose 3 (mg/kg), i.p or oral route
[8] = dose 10 (mg/kg), i.p or oral route
[9] = dose 30 (mg/kg), i.p or oral route

| SMILES | melting point | Total number lever press (Sprague-Dawley rats [1]; dose 30 (mg/kg)) | Suppression ratio (SR) (Sprague-Dawley rats [1]; dose 30 (mg/kg)) | Efficacy in the CER assay (effect on SR), in words (Sprague-Dawley rats [1]) | Efficacy in the marble burying assay, in words (CD-1 mice [2]; mouse, in vivo) | Number of marbles buried (CD-1 mice [2]; [7]) | Rotorod score (CD-1 mice [3]; dose 3) | Magnitude of the SR effect compared with diazepam (Sprague-Dawley rats [1]) | Total number lever press (Sprague-Dawley rats [1]; dose 3 (mg/kg)) | Suppression ratio (SR) (Sprague-Dawley rats [1]; dose 3 (mg/kg)) | Total number lever press (Sprague-Dawley rats [1]; dose 10 (mg/kg)) | Suppression ratio (SR) (Sprague-Dawley rats [1]; dose 10 (mg/kg)) | Number of marbles buried (CD-1 mice [2]; [8]) | Number of marbles buried (CD-1 mice [2]; [9]) | Rotorod score (CD-1 mice [3]; dose 10) | Rotorod score (CD-1 mice [3]; dose 30) | also measured |
| --- | --- | --- | --- | --- | --- | --- | --- | --- | --- | --- | --- | --- | --- | --- | --- | --- | --- |
| CC(=O)NC(COC(F)F)C(=O)NCc1ccccc1 (stereo not drawn) | 173.3 °C |  |  |  |  |  |  |  |  |  |  |  |  |  |  |  |  |
| COC[C@H](NC(C)=O)C(=O)NCc1ccccc1 (single isomer, unassigned) [(S)-enantiomer of Lacosamide, reference compound] |  | 1403 ± 158 | 0.06 ± 0.03 | ineffective | ineffective |  |  |  |  |  |  |  |  |  |  |  |  |
| CN1C(=O)CN=C(c2ccccc2)c2cc(Cl)ccc21 [Diazepam, reference compound] |  |  |  |  | produced a similar profile | 2.0 ± 0.8 | 40 s |  |  |  |  |  |  |  |  |  | Total number lever press (Sprague-Dawley rats [1]; [6]): 899 ± 146 and 1015 ± 155 and 1151 ± 138 and 1239 ± 183; Suppression ratio (SR) (Sprague-Dawley rats [1]; [6]): 0.39 ± 0.04* and 0.44 ± 0.03* and 0.32 ± 0.07*; Number of marbles buried (CD-1 mice [2]; dose 0.3, i.p or oral route): 12.6 ± 1.4; Number of marbles buried (CD-1 mice [2]; dose 1, i.p or oral route): 9.4 ± 1.7; Number of marbles buried (CD-1 mice [2]; dose 2, i.p or oral route): 2.2 ± 1.2; Rotorod score (CD-1 mice [3]; dose 0.3): 60 s; Rotorod score (CD-1 mice [3]; dose 1): 60 s; SR value typically reached with established anti-anxiety agents (Sprague-Dawley rats [4]): 0.4-0.5; Effect of anti-anxiety drugs on marbles buried by mice, in words (CD-1 mice [5]): reduce the number of marbles buried |
| CC(=O)N[C@H](COC(F)F)C(=O)NCc1ccccc1 [Example 19.1, (2R)-2-(Acetylamino)-N-benzyl-3-(difluoromethoxy)propanamide] | 186.9 °C | 724 ± 135 | 0.38 ± 0.04* | active in increasing the SR in a dose-related manner | active in decreasing marble burying in a dose-related manner | 17.0 ± 1.1 | 60 s | equivalent to diazepam | 1169 ± 145 | 0.16 ± 0.03 | 1093 ± 169 | 0.15 ± 0.05 | 9.7 ± 2.3 | 2.3 ± 2.0 | 60 s | 13 s |  |
| CC(=O)N[C@H](COC(F)F)C(=O)NCc1ccc(F)cc1 [Example 20.1, (2R)-2-(Acetylamino)-3-(difluoromethoxy)-N-(4-fluorobenzyl)propanamide] | 162.7 °C | 587 ± 84 | 0.43 ± 0.05* | active in increasing the SR in a dose-related manner | active in decreasing marble burying in a dose-related manner | 15.0 ± 1.2 | 60 s | equivalent to diazepam | 1188 ± 95 | 0.17 ± 0.06 | 1170 ± 98 | 0.28 ± 0.07* | 14.9 ± 0.9 | 10.3 ± 1.5 | 60 s | 60 s | Total number lever press (Sprague-Dawley rats [1]; dose 20 (mg/kg)): 849 ± 78; Suppression ratio (SR) (Sprague-Dawley rats [1]; dose 20 (mg/kg)): 0.33 ± 0.06* |
| CC(=O)N[C@H](COC(F)F)C(=O)NCc1ccc(Cl)cc1 [Example 23.1, (2R)-2-(acetylamino)-N-(4-chlorobenzyl)-3-(difluoromethoxy)propanamide] |  | 578 ± 79 | 0.26 ± 0.04* | active in increasing the SR in a dose-related manner | active in decreasing marble burying in a dose-related manner | 15.8 ± 0.8 | 60 s | equivalent to diazepam | 1091 ± 169 | 0.09 ± 0.04 | 1034 ± 131 | 0.17 ± 0.04* | 12.3 ± 1.2 | 2.0 ± 0.7 | 60 s | 60 s |  |
| COC[C@@H](NC(C)=O)C(=O)NCc1ccccc1 [Lacosamide, (+)-(2R)-2-(acetylamino)-N-benzyl-3-methoxypropanamide, reference compound] |  | 727 ± 123 | 0.36 ± 0.07* |  |  | 16.8 ± 0.8 | 60 s | equivalent to diazepam | 1166 ± 185 | 0.16 ± 0.07 | 1121 ± 138 | 0.18 ± 0.08 | 18.0 ± 0.7 | 12.4 ± 1.4 | 60 s | 60 s | Efficacy in the CER assay (effect on SR value), in words (Sprague-Dawley rats [1]; doses 3-30 mg/kg i.p.): significantly increasing the SR value; Efficacy in the marble burying assay, in words (CD-1 mice [2]; oral doses of 3-30 mg/kg, compared to vehicle pretreated controls): significantly reducing the number of marbles buried |
